According to US7803811B2, “1,2,3-substituted indolizine derivatives, inhibitors of FGFs, method for preparing them and pharmaceutical compositions containing them” (Sanofi-Aventis, priority 2002, dated 2010):

COc1cc(C(=O)c2c(C)c(OCCO)c3ccccn23)ccc1[N+](=O)[O-] [Example 80, [1-(2-Hydroxyethoxy)-2-methylindolizin-3-yl](3-methoxy-4-nitrophenyl)methanone]
melting point: 142 °C
